We go through 21 molecules from patent US9469645B2, “Compounds and compositions for the treatment of parasitic diseases” (Novartis AG, priority 2009, dated 2016).

The subject of one experiment is 3D7 P. falciparum strain. The experiment is described as follows: parasite proliferation assay in infected red blood cells (SYBR Green I). As to conditions: Plasmodium falciparum, 3D7, Erythrocyte, 3D7 strain; read-out: EC50 3D7 strain. The class given is cell-based, Plasmodium falciparum. The gist of the method:
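P. falciparum 3D7 grown in O+ human erythrocytes to 3–8% parasitemia and exposed to compounds. Proliferation read as the increase in parasite DNA. Detection used SYBR Green I in saponin/triton-X/EDTA lysis buffer, with overnight lysis at room temperature.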

The subject of the next experiment is W2 strain. The experiment is described as follows: parasite proliferation assay in infected red blood cells (SYBR Green I), W2 strain. The experiment is classed as cell-based. The conditions noted are these: Erythrocyte. An excerpt: Compounds of the invention can be assayed to measure their capacity to inhibit proliferation of parasitemia in infected red blood cells. The proliferation is quantified by the addition of SYBR Green I (INVITROGEN)® dye which has a high affinity for double stranded DNA.

Consider `Cc1ccc(Nc2c(-c3ccc(F)cc3)nc3n2CCN(C(=O)CC2CCOC2)C3)cc1` (stereo not drawn) [Compound 215], for which the EC50 was 0.83 µM in the experiment on 3D7 P. falciparum strain and 0.65 µM in the experiment with W2 strain.
On to `Cc1ccc(Cc2c(-c3ccc(F)cc3)nc3n2CCN(C(=O)CN)C3(C)C)cc1` [Compound 694], for which the figures for the EC50 in the experiment with 3D7 P. falciparum strain and in the experiment on W2 strain (Plasmodium falciparum) were 0.011 µM and 0.007 µM, respectively.
Regarding `Cc1ccc(Nc2c(-c3ccc(F)cc3)nc3n2CCN(C(=O)N2CCC(N4CCCC(C)C4)CC2)C3)cc1` (stereo not drawn) [Compound 273], the EC50 in the experiment on 3D7 P. falciparum strain was found to be 3.33 µM; in the experiment with W2 strain, 3.47 µM.
On to `Cc1ccc(Nc2c(-c3ccncc3)nc3n2CCNC3)cc1` [Compound 354], for which the EC50 was determined as 6.32 µM in the experiment on 3D7 P. falciparum strain and 0.564 µM with W2 strain.
As for `CCN1CCC(CC(=O)N2CCn3c(nc(-c4ccc(F)cc4)c3Nc3ccc(Cl)c(F)c3)C2)CC1` [Compound 304], the EC50 in the experiment with 3D7 P. falciparum strain is 3.21 µM; with W2 strain it was 2.95 µM.
As for `CC(C)(N)C(=O)N1CCn2c(nc(-c3ccc(F)cc3)c2NCc2ccccc2)C1` [Compound 23], the EC50 is greater than 10.6 µM in the experiment with 3D7 P. falciparum strain and 10.5 µM in the experiment with W2 strain.
`Cc1cc(C)cc(Nc2c(-c3ccc(F)cc3)nc3n2CCN(C(=O)CN)C3(C)C)c1` [Compound 656]: the values for the EC50 in the experiment with 3D7 P. falciparum strain and with W2 strain (Plasmodium falciparum) were 0.006 µM and 0.007 µM, respectively.
`C[C@H](OCc1ccccc1)[C@H](N)C(=O)N1CCn2c(nc(-c3ccc(F)cc3)c2Nc2ccc(Cl)c(F)c2)C1` [Compound 312]: the EC50 turned out to be 1.64 µM in the experiment with 3D7 P. falciparum strain and 0.897 µM in the experiment on W2 strain.
Taken in the same sequence, the figures for `Cc1ccc(Nc2c(-c3ccc(F)c(F)c3)nc3n2CCN(C(=O)CN)C3)cc1` [Compound 385] were 0.02 µM and 0.02 µM.
The corresponding values for `Cc1ccc(Nc2c(-c3ccc(F)cc3)nc3n2CCN(C(=O)C(C)Nc2c(C)cccc2C)C3)cc1` (stereo not drawn) [Compound 380] are 1.13 µM and 1.79 µM.
`CCc1ccc(Nc2c(-c3ccc(F)cc3)nc3n2CCN(C(=O)C(C)(C)N)C3)cc1` [Compound 641]: the figures for the EC50 in the experiment with 3D7 P. falciparum strain and with W2 strain (Plasmodium falciparum) were 0.799 µM and 1.28 µM, respectively.
Take `CN(c1ccc(Cl)c(F)c1)c1c(-c2ccc(F)cc2)nc2n1CCNC2` [Compound 292, N-(4-chloro-3-fluorophenyl)-2-(4-fluorophenyl)-N-methyl-5,6,7,8-tetrahydro imidazo[1,2-a]pyrazin-3-amine]: the EC50 stood at 0.15 µM in the experiment with 3D7 P. falciparum strain and 0.156 µM in the experiment with W2 strain.
In the case of `Cc1ccc(Nc2c(-c3ccc(F)cc3)nc3n2CCN(C(=O)[C@H](C)N)C3)cc1` [Compound 83], the half-maximal effective concentration (EC50) was 0.08 µM in the experiment with 3D7 P. falciparum strain and 0.131 µM in the experiment with W2 strain.
The corresponding values for `COC(C(=O)N1CCn2c(nc(-c3ccc(F)cc3)c2Nc2ccc(C)cc2)C1)(c1ccccc1)C(F)(F)F` (stereo not drawn) [Compound 128] are 1.18 µM and 0.743 µM.
Taken in the same sequence, the figures for `Cc1ccc(Nc2c(-c3ccc(F)c(F)c3)nc3n2CCN(C(=O)[C@@H](N)C(C)C)C3)cc1` [Compound 396] were 0.03 µM and 0.022 µM.
`Cc1ccc(Nc2c(-c3cccc(F)c3)nc3n2CC(=O)NC3(C)C)cc1Cl` [Compound 604]: the values for the EC50 with 3D7 P. falciparum strain and in the experiment with W2 strain (Plasmodium falciparum) were 0.04 µM and 0.049 µM, respectively.
The corresponding values for `Cc1cc(Nc2c(-c3ccc(F)cc3)nc3n2CC(=O)N(CCN(C)C)C3(C)C)ccc1F` [Compound 683] are 0.125 µM and 0.112 µM.
As to `CCN(CC)CCN1CCn2c(nc(-c3ccc(F)cc3)c2Nc2ccc(C)cc2)C1` [Compound 88], the EC50 in the experiment on 3D7 P. falciparum strain was 0.15 µM; in the experiment with W2 strain, 0.081 µM.
The corresponding values for `Cc1ccc(Nc2c(-c3ccc(F)cc3)nc3n2CCN(C(=O)C(c2ccccc2)C(C)C)C3)cc1` (stereo not drawn) [Compound 231] are 0.09 µM and 0.07 µM.
For the molecule `CC(C)(N)C(=O)N1CCn2c(nc(-c3ccccc3)c2Nc2ccccc2)C1` [Compound 8], the EC50 with 3D7 P. falciparum strain amounted to 0.62 µM; in the experiment on W2 strain, 0.501 µM.
As for `Cc1ccc(Nc2c(-c3ccc(F)cc3)nc3n2CCN(C(=O)C(C)(C)c2ccc(Cl)cc2)C3)cc1` [Compound 174], the EC50 in the experiment on 3D7 P. falciparum strain amounted to 6.06 µM; in the experiment on W2 strain, 1.48 µM.
